Article PMC9481151, “Discovery of new symmetrical and asymmetrical nitrile-containing 1,4-dihydropyridine derivatives as dual kinases and P-glycoprotein inhibitors: synthesis, in vitro assays, and in silico studies” (Journal of Enzyme Inhibition and Medicinal Chemistry, 2022)
Several values for one entry are separate records, joined by “and”; a condition that tells them apart may be missing. Equal entries are not always repeated.

How the values were obtained:
CCRF-CEM = assay: NCI single dose (10 µM) SRB screen; assay type: cell-based, human; settings: leukaemia, 48 h
HL-60(TB) = assay: NCI single dose (10 µM) SRB screen; assay type: cell-based, human; settings: leukaemia, 48 h
MOLT-4 = assay: NCI single dose (10 µM) SRB screen; assay type: cell-based, human; settings: leukaemia, 48 h
RPMI-8226 = assay: NCI single dose (10 µM) SRB screen; assay type: cell-based, human; settings: leukaemia, 48 h
SR = assay: NCI single dose (10 µM) SRB screen; assay type: cell-based, human; settings: leukaemia, 48 h
A549/ATCC = assay: NCI single dose (10 µM) SRB screen; assay type: cell-based, human; settings: non-small cell lung cancer, 48 h
NCI-H226 = assay: NCI single dose (10 µM) SRB screen; assay type: cell-based, human; settings: non-small cell lung cancer, 48 h
NCI-H23 = assay: NCI single dose (10 µM) SRB screen; assay type: cell-based, human; settings: non-small cell lung cancer, 48 h
NCI-H322M = assay: NCI single dose (10 µM) SRB screen; assay type: cell-based; settings: non-small cell lung cancer, 48 h
NCI-H460 = assay: NCI single dose (10 µM) SRB screen; assay type: cell-based, human; settings: non-small cell lung cancer, 48 h
NCI-H522 = assay: NCI single dose (10 µM) SRB screen; assay type: cell-based, human; settings: non-small cell lung cancer, 48 h
COLO 205 = assay: NCI single dose (10 µM) SRB screen; assay type: cell-based, human; settings: colon cancer, 48 h
HCT-116 = assay: NCI single dose (10 µM) SRB screen; assay type: cell-based, human; settings: colon cancer, 48 h
HT29 = assay: NCI single dose (10 µM) SRB screen; assay type: cell-based, human; settings: colon cancer, 48 h
KM12 = assay: NCI single dose (10 µM) SRB screen; assay type: cell-based, human; settings: colon cancer, 48 h
SW-620 = assay: NCI single dose (10 µM) SRB screen; assay type: cell-based, human; settings: colon cancer, 48 h
SF-268 = assay: NCI single dose (10 µM) SRB screen; assay type: cell-based, human; settings: CNS cancer, 48 h
SF-295 = assay: NCI single dose (10 µM) SRB screen; assay type: cell-based, human; settings: CNS cancer, 48 h
SF-539 = assay: NCI single dose (10 µM) SRB screen; assay type: cell-based, human; settings: CNS cancer, 48 h
SNB-19 = assay: NCI single dose (10 µM) SRB screen; assay type: cell-based, human; settings: CNS cancer, 48 h
SNB-75 = assay: NCI single dose (10 µM) SRB screen; assay type: cell-based, human; settings: CNS cancer, 48 h
U251 = assay: NCI single dose (10 µM) SRB screen; assay type: cell-based, human; settings: CNS cancer, 48 h
LOX IMVI = assay: NCI single dose (10 µM) SRB screen; assay type: cell-based, human; settings: melanoma, 48 h
MALME-3M = assay: NCI single dose (10 µM) SRB screen; assay type: cell-based, human; settings: melanoma, 48 h
M14 = assay: NCI single dose (10 µM) SRB screen; assay type: cell-based, human; settings: melanoma, 48 h
MDA-MB-435 = assay: NCI single dose (10 µM) SRB screen; assay type: cell-based, human; settings: melanoma, 48 h
SK-MEL-28 = assay: NCI single dose (10 µM) SRB screen; assay type: cell-based, human; settings: melanoma, 48 h
SK-MEL-5 = assay: NCI single dose (10 µM) SRB screen; assay type: cell-based, human; settings: melanoma, 48 h
UACC-257 = assay: NCI single dose (10 µM) SRB screen; assay type: cell-based, human; settings: melanoma, 48 h
IGROV1 = assay: NCI single dose (10 µM) SRB screen; assay type: cell-based, human; settings: ovarian cancer, 48 h
OVCAR-3 = assay: NCI single dose (10 µM) SRB screen; assay type: cell-based, human; settings: ovarian cancer, 48 h
OVCAR-4 = assay: NCI single dose (10 µM) SRB screen; assay type: cell-based, human; settings: ovarian cancer, 48 h
OVCAR-5 = assay: NCI single dose (10 µM) SRB screen; assay type: cell-based, human; settings: ovarian cancer, 48 h
OVCAR-8 = assay: NCI single dose (10 µM) SRB screen; assay type: cell-based, human; settings: ovarian cancer, 48 h
NCI/ADR-RES = assay: NCI single dose (10 µM) SRB screen; assay type: cell-based, human; settings: ovarian cancer, 48 h
SK-OV-3 = assay: NCI single dose (10 µM) SRB screen; assay type: cell-based, human; settings: ovarian cancer, 48 h
786-0 = assay: NCI single dose (10 µM) SRB screen; assay type: cell-based, human; settings: renal cancer, 48 h
A498 = assay: NCI single dose (10 µM) SRB screen; assay type: cell-based, human; settings: renal cancer, 48 h
ACHN = assay: NCI single dose (10 µM) SRB screen; assay type: cell-based, human; settings: renal cancer, 48 h
CAKI-1 = assay: NCI single dose (10 µM) SRB screen; assay type: cell-based, human; settings: renal cancer, 48 h
RXF 393 = assay: NCI single dose (10 µM) SRB screen; assay type: cell-based, human; settings: renal cancer, 48 h
SN12C = assay: NCI single dose (10 µM) SRB screen; assay type: cell-based, human; settings: renal cancer, 48 h
TK-10 = assay: NCI single dose (10 µM) SRB screen; assay type: cell-based, human; settings: renal cancer, 48 h
PC-3 = assay: NCI single dose (10 µM) SRB screen; assay type: cell-based, human; settings: prostate cancer, 48 h
DU-145 = assay: NCI single dose (10 µM) SRB screen; assay type: cell-based, human; settings: prostate cancer, 48 h
MCF7 = assay: NCI single dose (10 µM) SRB screen; assay type: cell-based, human; settings: breast cancer, 48 h
MDA-MB-468 = assay: NCI single dose (10 µM) SRB screen; assay type: cell-based, human; settings: breast cancer, 48 h
NCI 60 cancer cell lines = assay: NCI single dose (10 µM) SRB screen, mean over panel; assay type: cell-based, human; settings: mean over 60 cell lines, 48 h
Staphylococcus aureus = assay: Agar well diffusion method
Bacillus subtilis = assay: Agar well diffusion method
Escherichia coli = assay: Agar well diffusion method
Aspergillus flavus = assay: Agar well diffusion method

CCOC(=O)C1=C(C)NC(C)=C(C(=O)OC(C)(C)C)C1c1cccc(C#N)c1 (racemic) [Compound 2j, (±)-3-Tert-butyl 5-ethyl 4-(3-cyanophenyl)-2,6-dimethyl-1,4-dihydropyridine-3,5-dicarboxylate]
GI% CCRF-CEM (CCRF-CEM): – (Only GI% ≥ 10 are shown)
GI% HL-60(TB) (HL-60(TB)): 19%
GI% MOLT-4 (MOLT-4): 17%
GI% RPMI-8226 (RPMI-8226): 12%
GI% SR (SR): 22%
GI% A549/ATCC (A549/ATCC): 11%
GI% NCI-H226 (NCI-H226): – (Only GI% ≥ 10 are shown)
GI% NCI-H23 (NCI-H23): – (Only GI% ≥ 10 are shown)
GI% NCI-H322M (NCI-H322M): – (Only GI% ≥ 10 are shown)
GI% NCI-H460 (NCI-H460): – (Only GI% ≥ 10 are shown)
GI% NCI-H522 (NCI-H522): 13%
GI% COLO 205 (COLO 205): – (Only GI% ≥ 10 are shown)
GI% HCT-116 (HCT-116): 13%
GI% HT29 (HT29): – (Only GI% ≥ 10 are shown)
GI% KM12 (KM12): – (Only GI% ≥ 10 are shown)
GI% SW-620 (SW-620): – (Only GI% ≥ 10 are shown)
GI% SF-268 (SF-268): – (Only GI% ≥ 10 are shown)
GI% SF-295 (SF-295): – (Only GI% ≥ 10 are shown)
GI% SF-539 (SF-539): – (Only GI% ≥ 10 are shown)
GI% SNB-19 (SNB-19): – (Only GI% ≥ 10 are shown)
GI% SNB-75 (SNB-75): 22%
GI% U251 (U251): – (Only GI% ≥ 10 are shown)
GI% LOX IMVI (LOX IMVI): – (Only GI% ≥ 10 are shown)
GI% MALME-3M (MALME-3M): – (Only GI% ≥ 10 are shown)
GI% M14 (M14): – (Only GI% ≥ 10 are shown)
GI% MDA-MB-435 (MDA-MB-435): – (Only GI% ≥ 10 are shown)
GI% SK-MEL-28 (SK-MEL-28): – (Only GI% ≥ 10 are shown)
GI% SK-MEL-5 (SK-MEL-5): – (Only GI% ≥ 10 are shown)
GI% UACC-257 (UACC-257): – (Only GI% ≥ 10 are shown)
GI% IGROV1 (IGROV1): – (Only GI% ≥ 10 are shown)
GI% OVCAR-3 (OVCAR-3): – (Only GI% ≥ 10 are shown)
GI% OVCAR-4 (OVCAR-4): – (Only GI% ≥ 10 are shown)
GI% OVCAR-5 (OVCAR-5): – (Only GI% ≥ 10 are shown)
GI% OVCAR-8 (OVCAR-8): – (Only GI% ≥ 10 are shown)
GI% NCI/ADR-RES (NCI/ADR-RES): 10%
GI% SK-OV-3 (SK-OV-3): – (Only GI% ≥ 10 are shown)
GI% 786-0 (786-0): 13%
GI% A498 (A498): – (Only GI% ≥ 10 are shown)
GI% ACHN (ACHN): – (Only GI% ≥ 10 are shown)
GI% CAKI-1 (CAKI-1): 17%
GI% RXF 393 (RXF 393): – (Only GI% ≥ 10 are shown)
GI% SN12C (SN12C): – (Only GI% ≥ 10 are shown)
GI% TK-10 (TK-10): – (Only GI% ≥ 10 are shown)
GI% PC-3 (PC-3): 18%
GI% DU-145 (DU-145): – (Only GI% ≥ 10 are shown)
GI% MCF7 (MCF7): – (Only GI% ≥ 10 are shown)
GI% MDA-MB-468 (MDA-MB-468): 10%
Mean GI% (NCI 60 cancer cell lines): 4%
zone of inhibition at 1000 µg/mL (Staphylococcus aureus; Staphylococcus aureus, 24 h, read-out: Diameter of inhibition zone, S. aureus): 18 mm
% activity index, S. aureus (Staphylococcus aureus; relative to ciprofloxacin): 75%
zone of inhibition at 1000 µg/mL (Bacillus subtilis; Bacillus subtilis, 24 h, read-out: Diameter of inhibition zone, B. subtilis): 15 mm
% activity index, B. subtilis (Bacillus subtilis; relative to ciprofloxacin): 65.2%
zone of inhibition at 1000 µg/mL (Escherichia coli; Escherichia coli, 24 h, read-out: Diameter of inhibition zone, E. coli): 18 mm
% activity index, E. coli (Escherichia coli; relative to ciprofloxacin): 69% and 69.2%
zone of inhibition at 1000 µg/mL (Aspergillus flavus; Aspergillus flavus, 24 h, read-out: Diameter of inhibition zone, A. flavus): 20 mm
% activity index, A. flavus (Aspergillus flavus; relative to clotrimazole): 80%
